Source: US10420772B2, “Animal and human anti-trypanosomonal and anti-leishmania agents” (Celgene Corporation, priority 2016, dated 2019)

How the values were obtained:
[1] = system: IL3000 T. congolense (drug sensitive) strain; experiment: In vitro Alamar Blue 72 hrs drug sensitivity assay for T. congolense; assay type: cell-based; conditions: Trypanosoma congolense, IL3000 T. congolense bloodstream form, read-out: T. congo Act.
Experimental: In Vitro Alamar Blue 72 Hrs Drug Sensitivity Assay for T. Congolense. Compounds were tested in vitro for chemotherapeutic efficacy against the IL3000 T. congolense (drug sensitive) strain using an Alamar Blue assay. Test compounds were prepared as 10 mg/mL DMSO stocks for each assay run. Compounds were assayed in at least three separate, independent test runs and an 11-point dilution curve was used to determine the IC50 values. Bloodstream form trypanosomes were supported in HMI media containing 20% bovine serum and were incubated with test compounds for 69 hrs at 34° C. in a humidified atmosphere containing 5% CO2. Thereafter, 10 μL of Resazurin dye (12.5 mg in 100 mL of phosphate buffered saline, Sigma-Aldrich, Buchs, Switzerland) were added for an additional 3 hrs. Plates were then read using a fluorescent plate reader (Spectramax, Gemini XS, Bucher Biotec, Basel, Switzerland) using an excitation wavelength of 536 nm and an emission wavelength of 588 nm. Data points were averaged to generate sigmoidal dose-response curves and IC50 values were determined using Softmax Pro 5.2 software.

[2] = system: STIB 719/ILRAD 560 T. vivax (drug sensitive) strain; experiment: Ex vivo Alamar Blue 48 hrs drug sensitivity assay for T. vivax; assay type: cell-based; conditions: Trypanosoma vivax, STIB719; STIB 719/ILRAD 560 T. vivax bloodstream form, ex vivo, Alamar Blue, 48 hrs; read-out: T. vivax Act.
Experimental: Ex vivo Alamar Blue48 hrs drug sensitivity assay for T. vivax. Compounds were tested ex vivo for chemotherapeutic efficacy against the STIB 719/ILRAD 560 T. vivax (drug sensitive) strain, using an Alamar Blue assay. Test compounds were prepared as 10 mg/mL DMSO stocks for each assay run. Compounds were assayed in at least three separate, independent test runs and an 11-point dilution curve was used to determine the IC50 values. Bloodstream form trypanosomes were propagated and harvested from a highly parasitaemic mouse (via cardiac puncture) and were incubated with test compounds for 45 hrs at 37° C. in a humidified atmosphere containing 5% CO2, supported in HMI media containing 20% bovine serum. Thereafter, 10 μL of Resazurin dye (12.5 mg in 100 mL of phosphate buffered saline, Sigma-Aldrich, Buchs, Switzerland) were added for an additional 3 hrs. Plates were then read using a fluorescent plate reader (Spectramax, Gemini XS, Bucher Biotec, Basel, Switzerland) using an excitation wavelength of 536 nm and an emission wavelength of 588 nm. Data points were averaged to generate sigmoidal dose-response curves and IC50 values were determined using Softmax Pro 5.2 software.

Compound | IC50 [1] [nM] | IC50 [2] [nM]
CC1(Nc2ncc3nc(Nc4cccc(Cl)c4)n([C@H]4CC[C@@H](CN)CC4)c3n2)CCC1 [A-2, 9-((1s,4s)-4-(aminomethyl)cyclohexyl)-N8-(3-chlorophenyl)-N2-(1-methylcyclobutyl)-9H-purine-2,8-diamine] | < 150 | < 150
CCC(C)(C)Nc1ncc2nc(Nc3cccc(Cl)c3)n([C@H]3CC[C@@H](CN)CC3)c2n1 [A-3, 9-((1s,4s)-4-(aminomethyl)cyclohexyl)-N8-(3-chlorophenyl)-N2-tert-pentyl-9H-purine-2,8-diamine] | < 150 | < 150
CC(C)(C)Nc1ncc2nc(Nc3ccccn3)n(C3CCC(CN)CC3)c2n1 (stereo not shown) [A-6, 9-((1s,4s)-4-(aminomethyl)cyclohexyl)-N2-tert-butyl-N8-(pyridin-2-yl)-9H-purine-2,8-diamine] | 350 to 500 | < 150
CC1(Nc2ncc3nc(Nc4ccccn4)n(C4CCC(CN)CC4)c3n2)CCOCC1 (stereo not shown) [A-8, 9-((1s,4s)-4-(aminomethyl)cyclohexyl)-N2-(4-methyltetrahydro-2H-pyran-4-yl)-N8-(pyridin-2-yl)-9H-purine-2,8-diamine] | 350 to 500 | 150 to 350
CC1(Nc2ncc3nc(Nc4cccc(F)c4F)n(C4CCC(CN)CC4)c3n2)CCOCC1 (stereo not shown) [A-9, 9-((1s,4s)-4-(aminomethyl)cyclohexyl)-N8-(2,3-difluorophenyl)-N2-(4-methyltetrahydro-2H-pyran-4-yl)-9H-purine-2,8-diamine] | < 150 | < 150
CC1(Nc2ncc3nc(Nc4cccc(Cl)c4)n(C4CCC(O)CC4)c3n2)CCCC1 (stereo not shown) [A-10, (1s,4s)-4-(8-(3-chlorophenylamino)-2-(1-methylcyclopentylamino)-9H-purin-9-yl)cyclohexanol] | 350 to 500 | 350 to 500
CC1(Nc2ncc3nc(Nc4cccc(C(F)(F)F)c4)n(C4CCC(CN)CC4)c3n2)CCCC1 (stereo not shown) [A-12, 9-((1s,4s)-4-(aminomethyl)cyclohexyl)-N2-(1-methylcyclopentyl)-N8-(3-(trifluoromethyl)phenyl)-9H-purine-2,8-diamine] | 350 to 500 | 150 to 350
COC(=O)NC[C@H]1CC[C@@H](n2c(Nc3cccc(Cl)c3)nc3cnc(NC4(C)CCOCC4)nc32)CC1 [A-14, methyl ((1s,4s)-4-(8-(3-chlorophenylamino)-2-(4-methyltetrahydro-2H-pyran-4-ylamino)-9H-purin-9-yl)cyclohexyl)methylcarbamate] | 150 to 350 | 350 to 500
CC(C)(C)Nc1ncc2nc(Nc3cccc(C(F)(F)F)c3)n([C@H]3CC[C@@H](CN)CC3)c2n1 [A-15, 9-((1s,4s)-4-(aminomethyl)cyclohexyl)-N2-tert-butyl-N8-(3-(trifluoromethyl)phenyl)-9H-purine-2,8-diamine] | < 150 | < 150
CC1(Nc2ncc3nc(Nc4ccc(C(F)(F)F)cc4)n(C4CCC(CN)CC4)c3n2)CCCC1 (stereo not shown) [A-16, 9-((1s,4s)-4-(aminomethyl)cyclohexyl)-N2-(1-methylcyclopentyl)-N8-(4-(trifluoromethyl)phenyl)-9H-purine-2,8-diamine] | 350 to 500 | 350 to 500
CC(C)(C)Nc1ncc2nc(Nc3cccc(C(F)(F)F)c3)n([C@H]3CC[C@H](CN)CC3)c2n1 [A-17, 9-((1r,4r)-4-(aminomethyl)cyclohexyl)-N2-tert-butyl-N8-(3-(trifluoromethyl)phenyl)-9H-purine-2,8-diamine] | < 150 | < 150
Cc1ccc(Nc2nc3cnc(NC(C)(C)C)nc3n2C2CCC(CN)CC2)cc1 (stereo not shown) [A-18, 9-((1r,4r)-4-(aminomethyl)cyclohexyl)-N2-tert-butyl-N8-p-tolyl-9H-purine-2,8-diamine] | 350 to 500 | 150 to 350
CC1(Nc2ncc3nc(Nc4cccc(Cl)c4)n([C@H]4CC[C@@H](CO)CC4)c3n2)CCOCC1 [A-19, ((1s,4s)-4-(8-(3-chlorophenylamino)-2-(4-methyltetrahydro-2H-pyran-4-ylamino)-9H-purin-9-yl)cyclohexyl)methanol] | 350 to 500 | 150 to 350
CC1(Nc2ncc3nc(Nc4cccc(Cl)c4)n([C@@H]4CCC[C@H](CN)C4)c3n2)CCOCC1 [A-20, 9-((1R,3S)-3-(aminomethyl)cyclohexyl)-N8-(3-chlorophenyl)-N2-(4-methyltetrahydro-2H-pyran-4-yl)-9H-purine-2,8-diamine] | 350 to 500 | < 150
CNC[C@H]1CC[C@@H](n2c(Nc3cccc(Cl)c3)nc3cnc(NC4(C)CCOCC4)nc32)CC1 [A-21, N8-(3-chlorophenyl)-9-((1s,4s)-4-((methylamino)methyl)cyclohexyl)-N2-(4-methyltetrahydro-2H-pyran-4-yl)-9H-purine-2,8-diamine] | < 150 | < 150
CC(C)(C)Nc1ncc2nc(Nc3ccc(C(F)(F)F)cc3)n([C@H]3CC[C@@H](CN)CC3)c2n1 [A-22, 9-((1s,4s)-4-(aminomethyl)cyclohexyl)-N2-tert-butyl-N8-(4-(trifluoromethyl)phenyl)-9H-purine-2,8-diamine] | 150 to 350 | 350 to 500
CCC(C)(C)Nc1ncc2nc(Nc3ccc(C(F)(F)F)cc3)n([C@H]3CC[C@@H](CN)CC3)c2n1 [A-23, 9-((1s,4s)-4-(aminomethyl)cyclohexyl)-N2-tert-pentyl-N8-(4-(trifluoromethyl)phenyl)-9H-purine-2,8-diamine] | 350 to 500 | 350 to 500
CC1(Nc2ncc3nc(Nc4cccc(C(F)(F)F)c4)n(C4CCC(C#N)CC4)c3n2)CCOCC1 (stereo not shown) [A-24, (1s,4s)-4-(2-(4-methyltetrahydro-2H-pyran-4-ylamino)-8-(3-(trifluoromethyl)phenylamino)-9H-purin-9-yl)cyclohexanecarbonitrile] | 150 to 350 | 150 to 350
CC(=O)NC1CCC(n2c(Nc3cccc(Cl)c3)nc3cnc(NC4(C)CCOCC4)nc32)CC1 (stereo not shown) [A-25, N-((1s,4s)-4-(8-(3-chlorophenylamino)-2-(4-methyltetrahydro-2H-pyran-4-ylamino)-9H-purin-9-yl)cyclohexyl)acetamide] | 350 to 500 | < 150
CC1(Nc2ncc3nc(Nc4cccc(Cl)c4)n([C@H]4CC[C@H](CO)CC4)c3n2)CCOCC1 [A-26, ((1r,4r)-4-(8-(3-chlorophenylamino)-2-(4-methyltetrahydro-2H-pyran-4-ylamino)-9H-purin-9-yl)cyclohexyl)methanol] | 150 to 350 | < 150
CC1(Nc2ncc3nc(Nc4cccc(Cl)c4)n([C@H]4CC[C@@H](N)CC4)c3n2)CCOCC1 [A-27, 9-((1s,4s)-4-aminocyclohexyl)-N8-(3-chlorophenyl)-N2-(4-methyltetrahydro-2H-pyran-4-yl)-9H-purine-2,8-diamine] | < 150 | < 150
CC(C)(C)Nc1ncc2nc(Nc3cccc(C(F)(F)F)c3)n([C@H]3CC[C@@H](N)CC3)c2n1 [A-29, 9-((1s,4s)-4-aminocyclohexyl)-N2-tert-butyl-N8-(3-(trifluoromethyl)phenyl)-9H-purine-2,8-diamine] | < 150 | < 150
CC(C)(C)Nc1ncc2nc(Nc3cccc(C(F)(F)F)c3)n([C@H]3CC[C@H](N)CC3)c2n1 [A-30, 9-((1r,4r)-4-aminocyclohexyl)-N2-tert-butyl-N8-(3-(trifluoromethyl)phenyl)-9H-purine-2,8-diamine] | < 150 | < 150
CC1(Nc2ncc3nc(Nc4ccc(C(F)(F)F)cc4)n([C@H]4CC[C@@H](CN)CC4)c3n2)CCOCC1 [A-31, 9-((1s,4s)-4-(aminomethyl)cyclohexyl)-N2-(4-methyltetrahydro-2H-pyran-4-yl)-N8-(4-(trifluoromethyl)phenyl)-9H-purine-2,8-diamine] | 150 to 350 | < 150
CC1(Nc2ncc3nc(Nc4cccc(Cl)c4)n(-c4ccc(CN)cc4)c3n2)CCOCC1 [A-32, 9-(4-(aminomethyl)phenyl)-N8-(3-chlorophenyl)-N2-(4-methyltetrahydro-2H-pyran-4-yl)-9H-purine-2,8-diamine] | 150 to 350 | < 150
CC1(Nc2ncc3nc(Nc4cccc(C(F)(F)F)c4)n(C4CCC(CN)CC4)c3n2)CCC1 (stereo not shown) [A-57, 9-((1s,4s)-4-(aminomethyl)cyclohexyl)-N2-(1-methylcyclobutyl)-N8-(3-(trifluoromethyl)phenyl)-9H-purine-2,8-diamine] | < 150 | 
NCC1CCC(n2c(Nc3cccc(Cl)c3F)nc3cnc(NC4CCOCC4)nc32)CC1 (stereo not shown) [B-13, 9-((1s,4s)-4-(aminomethyl)cyclohexyl)-N8-(3-chloro-2-fluorophenyl)-N2-(tetrahydro-2H-pyran-4-yl)-9H-purine-2,8-diamine] | < 150 | 
